Consider nine molecules from patent US20090280060A1, “PHOTOCHROMIC PROBES” (priority 2004, published 2009).

In one series the target is BSA (Bos taurus, UniProt P02769). The series is described as follows: Absorption spectra of MC probes attached to a cysteine residue on BSA. Type of series: physicochemical. To be noted: MC state, probe attached to a cysteine residue on BSA. The protocol: BSA: BSA conjugates of the spirobenzopyran reagents were prepared in a similar fashion to that described for G-actin yielding similar labeling ratios (FIG. 5C). The absorption spectrum of the five MC probes attached to a cysteine residue on BSA are centered at 544.5 nm (18,365 cm^−1) for compound 6,534 nm ([…]) for compound 12, 520 nm (19,231 cm^−1) for compounds 9; 503.5 nm (19,861 cm^−1) for compound 13. The difference in the energy of the absorption bands for these conjugates of 1496 cm^−1 is a little less than that found between the same probes on G-actin but again is significant in terms of the free energy of complex formation between BSA and its ligands. These confirm the conclusion that the protein matrix is made up of a complex dipolar landscape.
Sequence of BSA (P02769 25-607): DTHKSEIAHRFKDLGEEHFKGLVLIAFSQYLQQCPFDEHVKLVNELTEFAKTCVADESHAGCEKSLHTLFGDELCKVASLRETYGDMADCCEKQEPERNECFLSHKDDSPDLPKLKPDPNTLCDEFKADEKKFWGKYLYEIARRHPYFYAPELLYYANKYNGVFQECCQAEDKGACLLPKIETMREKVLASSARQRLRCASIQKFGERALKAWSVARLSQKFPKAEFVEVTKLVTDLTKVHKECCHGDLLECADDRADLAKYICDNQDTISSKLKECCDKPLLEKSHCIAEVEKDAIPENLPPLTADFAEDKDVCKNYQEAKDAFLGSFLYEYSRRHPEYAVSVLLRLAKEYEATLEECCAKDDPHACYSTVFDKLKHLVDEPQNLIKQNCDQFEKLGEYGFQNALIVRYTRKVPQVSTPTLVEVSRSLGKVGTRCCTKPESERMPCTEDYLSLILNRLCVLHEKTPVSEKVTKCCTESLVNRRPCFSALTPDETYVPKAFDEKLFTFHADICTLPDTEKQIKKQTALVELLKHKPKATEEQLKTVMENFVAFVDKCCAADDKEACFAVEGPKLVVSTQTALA

Series [1] deals with T1, G-actin (Oryctolagus cuniculus, UniProt P68135). The series is described as follows: Fluorescence excitation and emission spectra of G-actin conjugates. Type of series: physicochemical, Rabbit. On the set-up: Rabbit muscle G-actin was purified according to Marriott; from tissue; host or cells: rabbit muscle. To be noted: for MC emission maximum of G-actin conjugate: excitation wavelength of 370 nm. The text has this: FIG. 3. (A), Technical fluorescence excitation spectrum of the G-actin conjugate of compound 12, showing the S0-S2 (centered at 370 nm) and S0-S1 (centered at 558 nm) excitation bands of MC. The emission was monitored at an emission wavelength of 650 nm. (B), Normalized, technical emission spectra of G-actin conjugates of compounds: a), 3 (624 nm); b), 12 (622 nm); c), 6 (628 nm); d), 13 (630 nm). The emission from the MC state in each conjugate was generated using an excitation wavelength of […].
(§1) MATERIALS AND METHODS. Instrumentation. ^1H NMR spectra were measured on a Brucker Ac 300 MHz; mass spectra were carried out on a Micromass AutoSpec for EI, a Micromass LCT for ESI, or a Bruker REFLEX II for MALDI. Absorption spectra were recorded on a Hewlett-Packard 82152 diode array spectrophotometer or a Shimadzu 1601 PC instrument. Fluorescence spectroscopy was performed on an SLM-AB2 instrument (Thermoelectron, Madison, Wis.) or an ISS PC1 (Champaign, Ill.). Light-directed switching of the probes described in this work was achieved by irradiating the sample (120-1000 μL) with the 365 nm or 546 nm lines of a 100 W Hg-arc lamp (Zeiss).
Further information on MC-solvent interactions can be derived from studying the fluorescence properties of MC. From a practical standpoint, fluorescence from ^1MC* is best studied by exciting the spirobenzopyran with mid-ultraviolet light (S0-S2 transition)—this condition maintains a uniform population of MC excited state molecules (see Jablonski diagram, FIG. 4A). Contrary to the ground state studies, the inventors find that the average energy of the MC fluorescence is insensitive to the solvent (water, 2-propanol, 1,2-propanediol and acetonitrile; data not shown) and to the location of MC probe on G-actin (FIG. 3B).

For series [2], the target named is T1, G-actin. The series is described as follows: Absorption spectra of MC state of probes attached to cysteine-374 on G-actin. To be noted: probe attached to cysteine-374 of G-actin. On the set-up: Rabbit muscle G-actin was purified according to Marriott; from tissue; host or cells: rabbit muscle. Format: physicochemical, Rabbit. The method, then:
as §1
Rabbit muscle G-actin was purified according to Marriott^14 in G-buffer (2 mM Tris, 0.2 mM CaCl2, and 0.2 mM ATP at pH 8.0). The concentration of G-actin was determined by absorption spectroscopy using an extinction coefficient of 3400 M^−1 cm^−1 at 290 nm^14. 1 ml of a 20 μM solution of G-actin was treated with 20 μL of a 10 mM DMF stock solution of each thiol reactive, spirobenzopyran probe. The reaction mixture was left in the dark for 2 hours at room temperature. The protein was centrifuged for 10 min at 2000 g at 4° and applied to a Bio-Rad PD-10 column equilibrated in G-buffer containing 1 mM DTT. […]
G-Actin: The reaction between a ten-fold molar excess of thiol reactive, spirobenzopyran reagents and 20 μM G-actin at 20° is complete within 2 hours. The concentration of spirobenzopyran in each conjugate is determined from the value of the absorption maximum of the SP form of G-actin conjugates using an extinction coefficient of 35,000 M^−1cm^−1 at 350 nm^15 (FIG. 5A) The absorption spectra of the MC and SP states are not affected by the labeling ratio (spirobenzopyran/G-actin, which varies from 0.6 to 0.8 within the different conjugates. Cysteine-374 is located at an important site on G-actin and has been implicated in several important interactions of actin that include protomer-contacts within F-actin^23, the binding of the actin filament capping proteins Gelsolin and CapG^24 and the motor protein, myosin II^25. […]

In series [3] the test system is fertilized xenopus oocytes. The series is described as follows: Cell division in microinjected fertilized xenopus oocytes. Type of series: in vivo. To be noted: microinjection at the 4 cell stage. The method, then:
Light directed activation of constitutively active caged cofilin. Caged cofilin (constitutively active S3A) was prepared independently of Ghosh et al (2004) using our standard NVOC-Cl approach (Marriott, 1994) that is described above for caged CapG. […] Oocytes were microinjected with caged fluorescein dextran (Molecular Probes) and concentrated caged cofilin (5 mg/ml) at the 4 cell stage—we estimate that the intracellular concentration of cofilin is the two injected cells is between 30˜50 μM. Irradiation of all four cells in the embryo with 365 nm light for 2 seconds generated fluorescein and green fluorescence, and by implication cofilin, from their caged precursors in the two injected cells. […] We conclude from these studies that the increased concentration of cofilin generated by uncaging inhibits actin filament dynamics and cytokinesis (Bamburg, 1999).

The next series concerns the target T2, F-actin (Oryctolagus cuniculus, UniProt P68135).
T2 construct: Rabbit muscle G-actin is purified according to Marriott (1994); from tissue; host or cells: rabbit muscle
The series is described as follows: Prodan-F-actin depolymerization kinetics after dilution. Type of series: biochemical. To be noted: Prodan actin emission ratio 465/502 nm, dilution below the critical concentration.

Where [4] appears, read: G-actin conjugate, emission monitored at 650 nm.

For the molecule `CC1(C)c2ccccc2N(CCN2C(=O)C=CC2=O)C12C=Cc1cc([N+](=O)[O-])ccc1O2` (stereo not shown) [compound 6, 1′-(Maleimidoethyl)spirobenzopyran], the “MC absorption spectrum centre on BSA” value at BSA was 544.5 nm. Moreover, the “MC emission maximum of G-actin conjugate” value at G-actin [1] is reported as 628 nm.

On to “4′-(Bromomethyl)spirobenzopyran [compound 9]”, for which the “MC absorption spectrum centre on BSA” value at BSA worked out at 520 nm. For the same molecule, at G-actin [2], the “MC absorption maximum on G-actin” value came to 500 nm.

Take “6′-(Bromomethyl)spirobenzopyran [compound 13]”: the “MC absorption spectrum centre on BSA” value on BSA came out at 503.5 nm. Further, the “MC absorption maximum on G-actin” value on G-actin [2] stood at 551.5 nm. For the same molecule, the “MC emission maximum of G-actin conjugate” value on G-actin [1] came out at 630 nm.

On to “8-(Iodomethyl)spirobenzopyran [compound 3]”, for which, at G-actin [1], the “MC emission maximum of G-actin conjugate” value turned out to be 624 nm.

Turning to “6′-(Maleimidomethyl)spirobenzopyran [compound 12]”, the “MC absorption maximum on G-actin” value on G-actin [2] was 551.5 nm. At G-actin [1] (setting [4]), the “S0-S1 excitation band of MC, centre” value is listed as 558 nm and the “S0-S2 excitation band of MC, centre” value worked out at 370 nm. Also, the “MC emission maximum of G-actin conjugate” value at G-actin [1] is listed as 622 nm.

For “wild type cofilin: wild type cofilin, inactivated by phosphorylation at Ser-3”, in series [3], the “effect on cell division / cytokinesis” value is given as “no effect on cell division”.

B1: Constitutively active cofilin: constitutively active S3A cofilin (protein, UniProt P23528 2-166, looked up, variant S3A)
Cofilin-1: AAGVAVSDGVIKVFNDMKVRKSSTPEEVKKRKKAVLFCLSEDKKNIILEEGKEILVGDVGQTVDDPYATFVKMLPDKDCRYALYDATYETKESKKEDLVFIFWAPESAPLKSKMIYASSKDAIKKKLTGIKHELQANCYEEVKDRCTLAEKLGGSAVISLEGKPL
As to B1, in the series with F-actin, the “effect on rate of F-actin depolymerization” value (shortened to “effect on rate”) is “increases the rate of F-actin depolymerization”. In series [3], the “effect on cell division / cytokinesis” value is “inhibited cytokinesis”.

B2: Uncaged cofilin: caged cofilin after light-directed uncaging (protein, UniProt P23528 2-166, looked up, variant S3A)
Cofilin-1: AAGVAVSDGVIKVFNDMKVRKSSTPEEVKKRKKAVLFCLSEDKKNIILEEGKEILVGDVGQTVDDPYATFVKMLPDKDCRYALYDATYETKESKKEDLVFIFWAPESAPLKSKMIYASSKDAIKKKLTGIKHELQANCYEEVKDRCTLAEKLGGSAVISLEGKPL
modifications: uncaged after photolysis
notes: caged cofilin after light-directed uncaging
As for B2, the “effect on rate” value in the series with F-actin was “restores a substantial fraction of the cofilin activity”.

B3: caged cofilin: constitutively active S3A cofilin caged with 3-5 NVOC groups by the NVOC-Cl approach (protein, UniProt P23528 2-166, looked up, variant S3A)
Cofilin-1: AAGVAVSDGVIKVFNDMKVRKSSTPEEVKKRKKAVLFCLSEDKKNIILEEGKEILVGDVGQTVDDPYATFVKMLPDKDCRYALYDATYETKESKKEDLVFIFWAPESAPLKSKMIYASSKDAIKKKLTGIKHELQANCYEEVKDRCTLAEKLGGSAVISLEGKPL
modifications: caged with 3-5 NVOC groups
As for B3, the “effect on rate” value in the series with F-actin was “did not accelerate the rate of F-actin depolymerization”. The “effect on cell division / cytokinesis” value in series [3] is “failed to undergo further divisions”; in series [3] (listed as caged constitutively active cofilin) it was “inhibits cytokinesis”.
